From PubChem BioAssay (NCI) come the findings set out here.

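The compound was tested at five concentrations on cells cultured in 96-well plates, with a 48-hour exposure period. GI50 marks 50% less growth. At the TGI there is no net growth.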 Bounds are passed on as bounds.

Some test systems named below: SNB-19 CNS; CCRF-CEM leukemia; HL-60(TB) leukemia; HCC-2998 colon; SF-539 CNS; HS 578T breast; COLO 205 colon; A549 NSCLC; RXF 393 renal; BT-549 breast.
Assay in all cases: NCI anticancer screen, dose series, 48 h

For `CCOC(=O)Nc1ccc(-c2nc(-c3cccc(OC)c3)c(-c3ccnc(Br)c3)[nH]2)cc1`, the GI50 in the assay with SNB-19 CNS is 2.96 µM; in the assay with CCRF-CEM leukemia it was 2.75 µM; with HL-60(TB) leukemia, 2.34 µM; in the assay with HCC-2998 colon it was 2.25 µM; with SF-539 CNS, 1.76 µM; in the assay with HS 578T breast, 1.68 µM. For the same molecule, the GI50 is 3.23 µM in the assay on COLO 205 colon, 3.07 µM with A549 NSCLC, 0.712 µM with RXF 393 renal and 2.19 µM in the assay on BT-549 breast. Also, the TGI was more than 100 µM with SNB-19 CNS; more than 100 µM with CCRF-CEM leukemia; 7.41 µM with HL-60(TB) leukemia; 6.23 µM in the assay on HCC-2998 colon; 4.56 µM in the assay with SF-539 CNS; 6.15 µM with HS 578T breast. The TGI in the assay with COLO 205 colon is more than 100 µM; in the assay with A549 NSCLC, more than 100 µM; with RXF 393 renal it was 2.94 µM; in the assay on BT-549 breast it was 8.11 µM.
In the case of `COC1=Nc2ccccc2S(=O)(=O)C=C1`, the TGI is 56.7 µM in the assay on SNB-19 CNS; more than 100 µM in the assay with CCRF-CEM leukemia; 36.9 µM in the assay on HCC-2998 colon; 33.3 µM with SF-539 CNS; 53.4 µM in the assay with HS 578T breast; 4.01 µM in the assay on COLO 205 colon. The figures for the TGI with A549 NSCLC, in the assay on RXF 393 renal and in the assay with BT-549 breast were 36.9 µM, 8.69 µM and 19.1 µM, respectively. Also, the GI50 with CCRF-CEM leukemia was 2.85 µM; with HL-60(TB) leukemia, 1.95 µM; with COLO 205 colon it was 0.695 µM; in the assay with BT-549 breast it was 0.678 µM.
For the molecule `O=C(OCc1ccc2c(Cl)cc(Cl)c(O)c2n1)c1cc2ccccc2[nH]1`, the GI50 was 1.59 µM with SNB-19 CNS; 0.146 µM with CCRF-CEM leukemia; 0.374 µM in the assay on HL-60(TB) leukemia; 1.51 µM in the assay with HCC-2998 colon; 0.587 µM with SF-539 CNS; 1.62 µM in the assay on HS 578T breast. The GI50 was 0.834 µM with COLO 205 colon, 1.75 µM in the assay with A549 NSCLC, 0.338 µM in the assay with RXF 393 renal and 0.265 µM with BT-549 breast. Besides, the TGI with SNB-19 CNS amounted to 2.99 µM; with CCRF-CEM leukemia, 1.93 µM; in the assay with HL-60(TB) leukemia, 1.69 µM; with HCC-2998 colon, 3.02 µM; in the assay on SF-539 CNS, 1.48 µM; in the assay with HS 578T breast it was 4.48 µM. Moreover, the TGI in the assay on COLO 205 colon came to 2.45 µM; with A549 NSCLC, 4.01 µM; in the assay on RXF 393 renal it was 1.08 µM; with BT-549 breast it was 0.845 µM.
Take `CN(CCCl)c1ccc(/C=C/C2=[N+](C)c3ccccc3C2(C)C)cc1`: the GI50 was 0.495 µM in the assay on SNB-19 CNS; 0.151 µM with CCRF-CEM leukemia; 0.265 µM in the assay on HL-60(TB) leukemia; 1.6 µM in the assay on HCC-2998 colon; 2.11 µM in the assay with SF-539 CNS; 1.53 µM in the assay with HS 578T breast. The GI50 with COLO 205 colon is 0.339 µM; in the assay with A549 NSCLC, 0.9 µM; in the assay on RXF 393 renal it was 1.57 µM; with BT-549 breast, 0.424 µM. In addition, the TGI in the assay on SNB-19 CNS came out at 15.5 µM; with CCRF-CEM leukemia, 5.75 µM; in the assay with HL-60(TB) leukemia it was 0.756 µM; in the assay on HCC-2998 colon, 12.8 µM; in the assay with SF-539 CNS it was 13.8 µM; in the assay on HS 578T breast, 32.1 µM. Besides, the TGI is 1.56 µM in the assay with COLO 205 colon, 12.5 µM in the assay on A549 NSCLC, 10.5 µM in the assay with RXF 393 renal and 4.85 µM in the assay on BT-549 breast.
Take `CS(=O)(=O)CCNCc1ccc(-c2ccc3ncnc(Nc4ccc(OCc5ccccc5)c(Cl)c4)c3c2)o1`: the GI50 in the assay on SNB-19 CNS is 10.4 µM; in the assay with CCRF-CEM leukemia, 7.24 µM; in the assay on HL-60(TB) leukemia, 5.2 µM; in the assay with HCC-2998 colon, 4.27 µM; with SF-539 CNS, 4.26 µM; in the assay on HS 578T breast it was 3.55 µM. The GI50 in the assay with COLO 205 colon was 4.05 µM; in the assay with A549 NSCLC it was 7.18 µM; with RXF 393 renal, 1.61 µM; in the assay with BT-549 breast, 6.9 µM. The TGI was more than 25 µM with SNB-19 CNS; more than 21.5 µM in the assay on CCRF-CEM leukemia; 11.8 µM in the assay on HL-60(TB) leukemia; 8.37 µM with HCC-2998 colon; 9.2 µM in the assay with SF-539 CNS; 12.7 µM in the assay with HS 578T breast. Further, the TGI with COLO 205 colon was 9.67 µM; in the assay with A549 NSCLC, more than 25 µM; with RXF 393 renal, 6.33 µM; in the assay with BT-549 breast, more than 25 µM.
Turning to `C=C1C(=O)O[C@H]2[C@H]1CC/C(COC(=O)c1ccc(C#N)cc1)=C\CC[C@@]1(C)O[C@@H]21`, the GI50 is 3.9 µM with SNB-19 CNS; 0.906 µM with CCRF-CEM leukemia; 1.67 µM in the assay with HL-60(TB) leukemia; 4.1 µM with HCC-2998 colon; 1.64 µM in the assay with SF-539 CNS; 3.04 µM in the assay with HS 578T breast. The GI50 in the assay on COLO 205 colon is 1.63 µM; in the assay with A549 NSCLC, 6 µM; in the assay on RXF 393 renal, 1.03 µM; in the assay on BT-549 breast, 1.44 µM. Also, the TGI in the assay with SNB-19 CNS is 15.1 µM; in the assay on CCRF-CEM leukemia, 6.47 µM; with HL-60(TB) leukemia, 7.47 µM; in the assay with HCC-2998 colon, 14.3 µM; with SF-539 CNS, 3.28 µM; in the assay with HS 578T breast it was 15.9 µM. Further, the TGI with COLO 205 colon was determined as 3.81 µM; in the assay with A549 NSCLC it was 20.5 µM; in the assay on RXF 393 renal, 2.32 µM; in the assay on BT-549 breast, 3.15 µM.
